Data as given in PMC9401498 (Clinical Cancer Research, 2021).
“Also recorded” adds a separate entry of the source.

System: patients with advanced and/or treatment-refractory solid tumors
Experiment: Safety and tolerability: adverse events
Assay type: in vivo, human
[1] = TID-fasted (n = 32), All grades

With `O=C(Cc1cccc(OC(F)(F)F)c1)Nc1ccc(CCCCc2nnc(NC(=O)Cc3ccccn3)s2)nn1` [telaglenastat, Telaglenastat] the “Patients with dose reductions” value (17 of 120 patients) was 14%, the “Patients with dose interruptions” value (50 of 120 patients, primarily due to AEs) was 42% and the “Maximum tolerated dose (MTD)” value (100–800 mg TID-fasted, 600–1,000 mg BID-fed) was “not reached; also recorded: not established”. For the same compound, the “Abdominal distension (treatment-related AE)” value (shortened to “Abdominal distension”) (BID-fed (n = 88), All grades) was 2 (2.3) n (%), the “Activated partial thromboplastin time prolonged (treatment-related AE)” value (BID-fed (n = 88), All grades) was 2 (2.3) n (%) and the “Alanine aminotransferase increased (treatment-related AE)” value (“Alanine aminotransferase increased” below) (BID-fed (n = 88), All grades) was 14 (15.9) n (%). The “Ammonia increased (treatment-related AE)” value (BID-fed (n = 88), All grades) was 2 (2.3) n (%), the “Anemia (treatment-related AE)” value (BID-fed (n = 88), All grades) was 5 (5.7) n (%) and the “Aspartate aminotransferase increased (treatment-related AE)” value (“Aspartate aminotransferase increased” below) (BID-fed (n = 88), All grades) was 10 (11.4) n (%). For the same compound, the “Blood alkaline phosphatase increased (treatment-related AE)” value (from here on “Blood alkaline phosphatase increased”) (BID-fed (n = 88), All grades) was 6 (6.8) n (%), the “Blood bilirubin increased (treatment-related AE)” value (shortened to “Blood bilirubin increased”) (BID-fed (n = 88), All grades) was 3 (3.4) n (%) and the “Blood creatinine increased (treatment-related AE)” value (“Blood creatinine increased” for short) (BID-fed (n = 88), All grades) was 4 (4.5) n (%). The “Constipation (treatment-related AE)” value (BID-fed (n = 88), All grades) was 3 (3.4) n (%), the “Decreased appetite (treatment-related AE)” value (“Decreased appetite” for short) (BID-fed (n = 88), All grades) was 8 (9.1) n (%) and the “Diarrhea (treatment-related AE)” value (BID-fed (n = 88), All grades) was 2 (2.3) n (%). For the same compound, the “Dysgeusia (treatment-related AE)” value (BID-fed (n = 88), All grades) was 2 (2.3) n (%), the “Dyspepsia (treatment-related AE)” value (BID-fed (n = 88), All grades) was 2 (2.3) n (%) and the “Fatigue (treatment-related AE)” value (BID-fed (n = 88), All grades) was 21 (23.9) n (%). For the same compound, the “Gastroesophageal reflux disease (treatment-related AE)” value (“Gastroesophageal reflux disease” for short) (BID-fed (n = 88), All grades) was 2 (2.3) n (%), the “Hypomagnesemia (treatment-related AE)” value (BID-fed (n = 88), All grades) was 4 (4.5) n (%) and the “Hyponatremia (treatment-related AE)” value (BID-fed (n = 88), All grades) was 2 (2.3) n (%). For the same compound, the “Nausea (treatment-related AE)” value (BID-fed (n = 88), All grades) was 21 (23.9) n (%), the “Neuropathy peripheral (treatment-related AE)” value (from here on “Neuropathy peripheral”) (BID-fed (n = 88), All grades) was 2 (2.3) n (%) and the “Patients with ≥1 treatment-emergent AE” value (BID-fed (n = 88), All grades) was 84 (95.5) n (%). The “Patients with ≥1 treatment-related AE” value (BID-fed (n = 88), All grades) was 64 (72.7) n (%), the “Photophobia (treatment-related AE)” value (BID-fed (n = 88), All grades) was 12 (13.6) n (%) and the “Photopsia (treatment-related AE)” value (BID-fed (n = 88), All grades) was 2 (2.3) n (%). The “Thrombocytopenia (treatment-related AE)” value (BID-fed (n = 88), All grades) was 4 (4.5) n (%), the “Vision blurred (treatment-related AE)” value (BID-fed (n = 88), All grades) was 3 (3.4) n (%) and the “Vomiting (treatment-related AE)” value (BID-fed (n = 88), All grades) was 5 (5.7) n (%). The “Weight decreased (treatment-related AE)” value (BID-fed (n = 88), All grades) was 3 (3.4) n (%), the “γ-Glutamyltransferase increased (treatment-related AE)” value (“γ-Glutamyltransferase increased” below) (BID-fed (n = 88), All grades) was 7 (8.0) n (%) and the “Abdominal distension” value (BID-fed (n = 88), Grade 3) was 0 n (%). For the same compound, the “Activated partial thromboplastin time prolonged (treatment-related AE)” value (BID-fed (n = 88), Grade 3) was 0 n (%), the “Alanine aminotransferase increased” value (BID-fed (n = 88), Grade 3) was 2 (2.3) n (%) and the “Ammonia increased (treatment-related AE)” value (BID-fed (n = 88), Grade 3) was 0 n (%). The “Anemia (treatment-related AE)” value (BID-fed (n = 88), Grade 3) was 1 (1.1) n (%), the “Aspartate aminotransferase increased” value (BID-fed (n = 88), Grade 3) was 1 (1.1) n (%) and the “Blood alkaline phosphatase increased” value (BID-fed (n = 88), Grade 3) was 1 (1.1) n (%). For the same compound, the “Blood bilirubin increased” value (BID-fed (n = 88), Grade 3) was 0 n (%), the “Blood creatinine increased” value (BID-fed (n = 88), Grade 3) was 0 n (%) and the “Constipation (treatment-related AE)” value (BID-fed (n = 88), Grade 3) was 0 n (%). For the same compound, the “Decreased appetite” value (BID-fed (n = 88), Grade 3) was 0 n (%), the “Diarrhea (treatment-related AE)” value (BID-fed (n = 88), Grade 3) was 0 n (%) and the “Dysgeusia (treatment-related AE)” value (BID-fed (n = 88), Grade 3) was 0 n (%). For the same compound, the “Dyspepsia (treatment-related AE)” value (BID-fed (n = 88), Grade 3) was 0 n (%), the “Fatigue (treatment-related AE)” value (BID-fed (n = 88), Grade 3) was 0 n (%) and the “Gastroesophageal reflux disease” value (BID-fed (n = 88), Grade 3) was 0 n (%). For the same compound, the “Hypomagnesemia (treatment-related AE)” value (BID-fed (n = 88), Grade 3) was 0 n (%), the “Hyponatremia (treatment-related AE)” value (BID-fed (n = 88), Grade 3) was 0 n (%) and the “Nausea (treatment-related AE)” value (BID-fed (n = 88), Grade 3) was 0 n (%). The “Neuropathy peripheral” value (BID-fed (n = 88), Grade 3) was 0 n (%), the “Patients with ≥1 treatment-emergent AE” value (BID-fed (n = 88), Grade 3) was 28 (31.8) n (%) and the “Patients with ≥1 treatment-related AE” value (BID-fed (n = 88), Grade 3) was 3 (3.4) n (%). The “Photophobia (treatment-related AE)” value (BID-fed (n = 88), Grade 3) was 0 n (%), the “Photopsia (treatment-related AE)” value (BID-fed (n = 88), Grade 3) was 0 n (%) and the “Thrombocytopenia (treatment-related AE)” value (BID-fed (n = 88), Grade 3) was 0 n (%). For the same compound, the “Vision blurred (treatment-related AE)” value (BID-fed (n = 88), Grade 3) was 0 n (%), the “Vomiting (treatment-related AE)” value (BID-fed (n = 88), Grade 3) was 0 n (%) and the “Weight decreased (treatment-related AE)” value (BID-fed (n = 88), Grade 3) was 0 n (%). The “γ-Glutamyltransferase increased” value (BID-fed (n = 88), Grade 3) was 2 (2.3) n (%), the “Abdominal distension” value (BID-fed (n = 88), Grade 4) was 0 n (%) and the “Activated partial thromboplastin time prolonged (treatment-related AE)” value (BID-fed (n = 88), Grade 4) was 0 n (%). The “Alanine aminotransferase increased” value (BID-fed (n = 88), Grade 4) was 0 n (%), the “Ammonia increased (treatment-related AE)” value (BID-fed (n = 88), Grade 4) was 0 n (%) and the “Anemia (treatment-related AE)” value (BID-fed (n = 88), Grade 4) was 0 n (%). The “Aspartate aminotransferase increased” value (BID-fed (n = 88), Grade 4) was 0 n (%), the “Blood alkaline phosphatase increased” value (BID-fed (n = 88), Grade 4) was 0 n (%) and the “Blood bilirubin increased” value (BID-fed (n = 88), Grade 4) was 0 n (%). The “Blood creatinine increased” value (BID-fed (n = 88), Grade 4) was 0 n (%), the “Constipation (treatment-related AE)” value (BID-fed (n = 88), Grade 4) was 0 n (%) and the “Decreased appetite” value (BID-fed (n = 88), Grade 4) was 0 n (%). For the same compound, the “Diarrhea (treatment-related AE)” value (BID-fed (n = 88), Grade 4) was 0 n (%), the “Dysgeusia (treatment-related AE)” value (BID-fed (n = 88), Grade 4) was 0 n (%) and the “Dyspepsia (treatment-related AE)” value (BID-fed (n = 88), Grade 4) was 0 n (%). The “Fatigue (treatment-related AE)” value (BID-fed (n = 88), Grade 4) was 0 n (%), the “Gastroesophageal reflux disease” value (BID-fed (n = 88), Grade 4) was 0 n (%) and the “Hypomagnesemia (treatment-related AE)” value (BID-fed (n = 88), Grade 4) was 0 n (%). The “Hyponatremia (treatment-related AE)” value (BID-fed (n = 88), Grade 4) was 0 n (%), the “Nausea (treatment-related AE)” value (BID-fed (n = 88), Grade 4) was 0 n (%) and the “Neuropathy peripheral” value (BID-fed (n = 88), Grade 4) was 0 n (%). The “Patients with ≥1 treatment-emergent AE” value (BID-fed (n = 88), Grade 4) was 5 (5.7) n (%), the “Patients with ≥1 treatment-related AE” value (BID-fed (n = 88), Grade 4) was 0 n (%) and the “Photophobia (treatment-related AE)” value (BID-fed (n = 88), Grade 4) was 0 n (%). The “Photopsia (treatment-related AE)” value (BID-fed (n = 88), Grade 4) was 0 n (%), the “Thrombocytopenia (treatment-related AE)” value (BID-fed (n = 88), Grade 4) was 0 n (%) and the “Vision blurred (treatment-related AE)” value (BID-fed (n = 88), Grade 4) was 0 n (%). The “Vomiting (treatment-related AE)” value (BID-fed (n = 88), Grade 4) was 0 n (%), the “Weight decreased (treatment-related AE)” value (BID-fed (n = 88), Grade 4) was 0 n (%) and the “γ-Glutamyltransferase increased” value (BID-fed (n = 88), Grade 4) was 0 n (%). The “Grade 3/4 ALT increase” value (BID-fed schedule) was 2%, the “Grade 3/4 AST increase” value (BID-fed schedule) was 1% and the “Incidence of treatment-related grade 3/4 AEs” value (BID-fed, 3/88) was 3%. For the same compound, the “Abdominal distension” value [1] was 0 n (%) and the “Activated partial thromboplastin time prolonged (treatment-related AE)” value [1] was 0 n (%).
